The source of these data is patent US8795635B2, “Substantially non-aqueous foamable petrolatum based pharmaceutical and cosmetic compositions and their uses” (Foamix Ltd., priority 2006, dated 2014).

Converted amounts (≈) assume the structure as drawn. Read-outs that look alike come from different tables or passages of the source.

One data set can be described thus: physchem. The following applies: for solubility: organic solvent or mixture. An excerpt:
In one or more embodiments, the foamable composition includes a potent solvent, in addition to or in place of one of the hydrophobic solvents, polar solvents or emollients of the composition. A potent solvent is a solvent other than mineral oil that solubilizes a specific active agent substantially better than a hydrocarbon solvent such as mineral oil or petrolatum.
In one or more embodiments, the composition includes at least one active agent in a therapeutically effective concentration; and at least one potent solvent in a sufficient amount to substantially solubilize the at least one active agent in the composition. […] In one or more embodiments, the concentration of the at least one potent solvent is more than about 40% of the at least one solvent of the composition; or even more than about 60%.

For data set [1] the following is noted: cited from earlier work.

With `CCCCC(=O)O[C@]1(C(=O)CO)[C@@H](C)C[C@H]2[C@@H]3CCC4=CC(=O)C=C[C@]4(C)[C@@]3(F)[C@@H](O)C[C@@]21C` [Betamethasone valerate], in “physchem”, the Solubility in glycofurol result is reported as “more than 1%” and the “Solubility in mineral oil” value was below 0.01%. For the same molecule, in data set [1] (in words), the solubility in water entry was “practically insoluble”.

Turning to `CCCC(=O)O[C@]1(C(=O)CO)CC[C@H]2[C@@H]3CCC4=CC(=O)CC[C@]4(C)[C@H]3[C@@H](O)C[C@@]21C` [Hydrocortisone butyrate], in “physchem”, the Solubility in glycofurol result is given as “more than 1%” and the “Solubility in mineral oil” value was below 0.01%.

Turning to `CC(=O)N1CCN(c2ccc(OCC3COC(Cn4ccnc4)(c4ccc(Cl)cc4Cl)O3)cc2)CC1` (stereo not drawn) [Ketoconazole], in “physchem”, the “Solubility in dimethyl isosorbide” value is listed as “more than 1%”, the Solubility in glycofurol result is “more than 1%”, the “Solubility in mineral oil” value is below 0.01% and the “Solubility in propylene glycol” value is “more than 1%”.

As a reminder, the solubility is how much of the substance goes into solution per volume. As for `Cc1cnc(NC(=O)C2=C(O)c3ccccc3S(=O)(=O)N2C)s1` [Meloxicam], the “Solubility in mineral oil” value in the data set “physchem” was below 0.001%. Further, the solubility came to 3700 µg/mL (≈ 10.5 mM) in the data set “physchem” (Solubility in PEG 400) and 300 µg/mL (≈ 0.854 mM) in the data set “physchem” (Solubility in propylene glycol).

As to `Cc1ncc([N+](=O)[O-])n1CCO` [Metronidazole], in “physchem”, the “Solubility in dimethyl isosorbide” value was “more than 1%” and the “Solubility in mineral oil” value is below 0.01%.

On to `C/C(=C\C(=O)OCCCCCCCCC(=O)O)C[C@@H]1OC[C@H](C[C@@H]2O[C@H]2[C@@H](C)[C@H](C)O)[C@@H](O)[C@H]1O` [Mupirocin], for which, in “physchem”, the “Solubility in dimethyl isosorbide” value is recorded as “more than 1%”, the Solubility in glycofurol result is given as “more than 1%”, the “Solubility in mineral oil” value is below 0.01% and the “Solubility in polyethylene glycol 400 (PEG 400)” value is given as “more than 1%”. In addition, the “Solubility in propylene glycol” value in “physchem” is listed as “more than 1%”.

Regarding `CC(=O)[C@H]1CC[C@H]2[C@@H]3CCC4=CC(=O)CC[C@]4(C)[C@H]3CC[C@]12C` [Progesterone], in “physchem”, the “Solubility in mineral oil” value is listed as below 0.001%. Also, the solubility in the data set “physchem” (Solubility in PEG 400) was 15300 µg/mL (≈ 48.7 mM).

For the molecule `C=C1/C(=C\C=C2/CCC[C@]3(C)[C@@H]([C@H](C)/C=C/[C@@H](O)C4CC4)CC[C@@H]23)C[C@@H](O)C[C@@H]1O` [calcipotriol], in data set [1], the solubility in water is 0.6 µg/mL (≈ 0.00145 mM).

For `CCC(=O)O[C@]1(C(=O)CCl)[C@@H](C)C[C@H]2[C@@H]3CCC4=CC(=O)C=C[C@]4(C)[C@@]3(F)[C@@H](O)C[C@@]21C` [clobestol proprionate], in data set [1] (in words), the “degree of solubility in water or petrolatum or the composition” value is recorded as “practically insoluble”.

As for `C=CC[C@@H]1/C=C(\C)C[C@H](C)C[C@H](OC)[C@H]2O[C@@](O)(C(=O)C(=O)N3CCCC[C@H]3C(=O)O[C@H](/C(C)=C/[C@@H]3CC[C@@H](O)[C@H](OC)C3)[C@H](C)[C@@H](O)CC1=O)[C@H](C)C[C@@H]2OC` [tacrolimus], in data set [1] (in words), the solubility in water result is “insoluble”.
